# Experimental data published in US11040038B2, “Methods for treating diseases associated with abnormal ACVR1 expression and ACVR1 inhibitors for use in the same” (Sumitomo Dainippon Pharma Oncology, Inc., priority 2018, dated 2021).
# Where two headings read alike, the source gives them in different places.
# Key:
# Format in all cases: physicochemical
# [1] = Hygroscopicity by DVS at 25° C.; settings: for Hygroscopicity (%), water uptake: 25° C./80% RH
# Procedure: A DVS isotherm plot was collected at 25° C. to investigate the solid form stability as a function of humidity. All the anhydrous samples were pre-equilibrated at 0% RH to remove the unbounded solvent or water before getting started. As evidenced by the water uptake of […] up to 80% RH, freebase Form A and both two salt forms were slightly hygroscopic, and no solid form change was observed after DVS evaluation (FIGS. 20A, 20B, 20C, 20D, 20E, and 20F).
# Dynamic Vapor Sorption (DVS) was measured via a SMS (Surface Measurement Systems) DVS Intrinsic. The relative humidity at 25° C. were calibrated against deliquescence point of LiCl, Mg(NO3)2 and KCl.
# [2] = Kinetic solubility in pH 2, 5 and 7 buffers at RT; settings: for solubility at 1 h / solubility at 2 h / solubility at 4 h / solubility at 24 h: 19 °C, aqueous buffer, thermodynamic from solid, read-out: S: solubility; for solubility at 1 h / solubility at 2 h / solubility at 4 h / solubility at 24 h / FC: solid form change / pH: final pH of supernatant / S: solubility: RT
# Procedure: Kinetic solubility of two salt leads was measured in pH 2, 5, and 7 buffers to evaluate their solubility and disproportionation risk, using freebase Form A (812608-05-A) as control. […] After centrifugation, supernatants were collected for HPLC and pH tests, and wet cakes were collected for XRPD characterization. If clear solutions were obtained, accurate concentration was measured for the solutions.
# Agilent 1100/1260 HPLC was utilized and detailed chromatographic conditions for purity and solubility measurement are listed in Table 39.
# [3] = Solid-state stability under 40° C./75% RH for one week; settings: for Solid-state Stability: 40° C./75% RH for at least one week; for FC: form change based on XRPD results / Purity vs. Initial (%): 40° C./75% RH; for FC: form change based on XRPD results / Purity vs. Initial (%) / Purity (area %): one week; for Purity (area %): after 40° C./75% RH, HPLC
# Procedure: Solid-state stability of freebase Form A, HCl salt Form A and fumarate Form A was evaluated under 40° C./75% RH for one week. Stability samples were characterized by XRPD to check any solid form change and by HPLC to check purity change.
# [4] = Approximate solubility of freebase in 12 solvents at RT; settings: thermodynamic from solid
# Procedure: Approximate solubility of freebase Form A (812608-05-A) was measured in 12 solvents at RT. For each experiment, approximately 2 mg of sample was added into a 3 mL glass vial. Solvents in Table 35 were then added step wise (50, 50, 200, 200, 500 μL) into the vials until the solids were dissolved visually or a total volume of 1 mL was reached. Solubility results summarized in Table 35 were used to guide the solvent selection in salt screening design.
# [5] = Estimated pKa values; settings: method not stated
smiles,measurement,setting,value
"COc1cc(Nc2nccc(Nc3cccnc3-c3ccccn3)n2)ccc1N1CCN(C)CC1 [Freebase Form A, N^4-(2,2′-bipyridin-3-yl)-N^2-(3-methoxy-4-(4-methylpiperazin-1-yl)phenyl)pyrimidine-2,4-diamine]","Hygroscopicity (%), water uptake",[1],(0.60) %
same,solubility at 1 h,"[2]; pH 2 buffer, 1 hr",4300 µg/mL
same,solubility at 2 h,"[2]; pH 2 buffer, 2 hrs",4100 µg/mL
same,solubility at 4 h,"[2]; pH 2 buffer, 4 hrs",4100 µg/mL
same,solubility at 24 h,"[2]; pH 2 buffer, 24 hrs",3200 µg/mL
same,solubility at 1 h,"[2]; pH 5 buffer, 1 hr",7400 µg/mL
same,solubility at 2 h,"[2]; pH 5 buffer, 2 hrs",7200 µg/mL
same,solubility at 4 h,"[2]; pH 5 buffer, 4 hrs",6300 µg/mL
same,solubility at 24 h,"[2]; pH 5 buffer, 24 hrs",6600 µg/mL
same,solubility at 1 h,"[2]; pH 7 buffer, 1 hr",0.4 µg/mL
same,solubility at 2 h,"[2]; pH 7 buffer, 2 hrs",1 µg/mL
same,solubility at 4 h,"[2]; pH 7 buffer, 4 hrs",0.4 µg/mL
same,solubility at 24 h,"[2]; pH 7 buffer, 24 hrs",8.9 µg/mL
same,FC: solid form change,"[2]; pH 2 buffer, 1 hr",No
same,pH: final pH of supernatant,"[2]; pH 2 buffer, 1 hr",6.2
same,FC: solid form change,"[2]; pH 2 buffer, 2 hrs",No
same,pH: final pH of supernatant,"[2]; pH 2 buffer, 2 hrs",6.2
same,FC: solid form change,"[2]; pH 2 buffer, 4 hrs",No
same,pH: final pH of supernatant,"[2]; pH 2 buffer, 4 hrs",6.2
same,FC: solid form change,"[2]; pH 2 buffer, 24 hrs",No
same,pH: final pH of supernatant,"[2]; pH 2 buffer, 24 hrs",6.1
same,FC: solid form change,"[2]; pH 5 buffer, 1 hr",No*
same,pH: final pH of supernatant,"[2]; pH 5 buffer, 1 hr",6.2
same,FC: solid form change,"[2]; pH 5 buffer, 2 hrs",No*
same,pH: final pH of supernatant,"[2]; pH 5 buffer, 2 hrs",6.3
same,FC: solid form change,"[2]; pH 5 buffer, 4 hrs",No
same,pH: final pH of supernatant,"[2]; pH 5 buffer, 4 hrs",6.4
same,FC: solid form change,"[2]; pH 5 buffer, 24 hrs",No
same,pH: final pH of supernatant,"[2]; pH 5 buffer, 24 hrs",6.4
same,FC: solid form change,"[2]; pH 7 buffer, 1 hr",No
same,pH: final pH of supernatant,"[2]; pH 7 buffer, 1 hr",7.0
same,FC: solid form change,"[2]; pH 7 buffer, 2 hrs",No
same,pH: final pH of supernatant,"[2]; pH 7 buffer, 2 hrs",6.9
same,FC: solid form change,"[2]; pH 7 buffer, 4 hrs",No
same,pH: final pH of supernatant,"[2]; pH 7 buffer, 4 hrs",7.0
same,FC: solid form change,"[2]; pH 7 buffer, 24 hrs",No
same,pH: final pH of supernatant,"[2]; pH 7 buffer, 24 hrs",7.0
same,Solid-state Stability,[3],Good physicochemical properties under 40° C./75%
same,FC: form change based on XRPD results,[3],No
same,Purity vs. Initial (%),[3],100.0%
same,Purity (area %),[3],99.18 area %
same,solubility,"[4]; organic solvent or mixture, ACN",< 2000 µg/mL
same,solubility,"[4]; organic solvent or mixture, Acetone",< 2400 µg/mL
same,solubility,"[4]; organic solvent or mixture, EtOAc",< 2500 µg/mL
same,solubility,"[4]; organic solvent or mixture, EtOH",2100 to 4200 µg/mL
same,solubility,"[4]; organic solvent or mixture, IPA",< 2400 µg/mL
same,solubility,"[4]; organic solvent or mixture, IPAc",< 2400 µg/mL
same,solubility,"[4]; organic solvent or mixture, MIBK",1900 to 3800 µg/mL
same,solubility,"[4]; organic solvent or mixture, MeOH",2400 to 4800 µg/mL
same,solubility,"[4]; organic solvent or mixture, THF",3600 to 6000 µg/mL
same,solubility,"[4]; organic solvent or mixture, Toluene",2000 to 4000 µg/mL
same,solubility,"[4]; organic solvent or mixture, n-Heptane",< 2100 µg/mL
same,solubility,"[4]; water, H2O",< 1900 µg/mL
same,pKa,[5],7.5
"COc1cc(Nc2nccc(Nc3cccnc3-c3ccccn3)n2)ccc1N1CCN(C)CC1.Cl [HCl Salt Form A, N^4-(2,2′-bipyridin-3-yl)-N^2-(3-methoxy-4-(4-methylpiperazin-1-yl)phenyl)pyrimidine-2,4-diamine anhydrous hydrochloric acid salt]",Water uptake,"[1]; 25° C., 95% RH",1.40%
same,"Hygroscopicity (%), water uptake",[1],(0.86) %
same,Kinetic Solubility compared with freebase Form A,"[2]; pH 2, 5 and 7 buffers","showed increased solubility in pH 2, 5 and 7 buffers;"
same,S: solubility,"[2]; pH 2 buffer, 1 hr",13400 µg/mL
same,pH: final pH of supernatant,"[2]; pH 2 buffer, 1 hr",5.5
same,S: solubility,"[2]; pH 2 buffer, 2 hrs",13300 µg/mL
same,pH: final pH of supernatant,"[2]; pH 2 buffer, 2 hrs",5.6
same,S: solubility,"[2]; pH 2 buffer, 4 hrs",13200 µg/mL
same,pH: final pH of supernatant,"[2]; pH 2 buffer, 4 hrs",5.6
same,S: solubility,"[2]; pH 2 buffer, 24 hrs",11800 µg/mL
same,pH: final pH of supernatant,"[2]; pH 2 buffer, 24 hrs",5.6
same,S: solubility,"[2]; pH 5 buffer, 1 hr",13200 µg/mL
same,pH: final pH of supernatant,"[2]; pH 5 buffer, 1 hr",5.7
same,S: solubility,"[2]; pH 5 buffer, 2 hrs",13000 µg/mL
same,pH: final pH of supernatant,"[2]; pH 5 buffer, 2 hrs",5.7
same,S: solubility,"[2]; pH 5 buffer, 4 hrs",13000 µg/mL
same,pH: final pH of supernatant,"[2]; pH 5 buffer, 4 hrs",5.7
same,S: solubility,"[2]; pH 5 buffer, 24 hrs",11600 µg/mL
same,pH: final pH of supernatant,"[2]; pH 5 buffer, 24 hrs",5.7
same,FC: solid form change,"[2]; pH 7 buffer, 1 hr",Yes
same,S: solubility,"[2]; pH 7 buffer, 1 hr",13500 µg/mL
same,pH: final pH of supernatant,"[2]; pH 7 buffer, 1 hr",7.0
same,FC: solid form change,"[2]; pH 7 buffer, 2 hrs",Yes
same,S: solubility,"[2]; pH 7 buffer, 2 hrs",9600 µg/mL
same,pH: final pH of supernatant,"[2]; pH 7 buffer, 2 hrs",6.9
same,FC: solid form change,"[2]; pH 7 buffer, 4 hrs",Yes
same,S: solubility,"[2]; pH 7 buffer, 4 hrs",9400 µg/mL
same,pH: final pH of supernatant,"[2]; pH 7 buffer, 4 hrs",6.9
same,FC: solid form change,"[2]; pH 7 buffer, 24 hrs",Yes
same,S: solubility,"[2]; pH 7 buffer, 24 hrs",210 µg/mL
same,pH: final pH of supernatant,"[2]; pH 7 buffer, 24 hrs",6.4
same,Solid-state Stability,[3],Good physicochemical properties under 40° C./75%
same,FC: form change based on XRPD results,[3],No
same,Purity vs. Initial (%),[3],99.9%
same,Purity (area %),[3],99.54 area %
